We go through 23 compounds from US20250214942A1, “INHIBITORS OF RECEPTOR INTERACTING PROTEIN KINASE I FOR THE TREATMENT OF DISEASE” (Board of Regents, The University of Texas System, priority 2019, published 2025).

For one experiment, the target named is RIPK1 (Homo sapiens (Human), UniProt Q13546). The experiment in a line: ADP-Glo kinase assay (RIPK1 activity, conversion of ATP to ADP). The class given is biochemical. The conditions noted are these: 5 nM RIPK1, 50 μM ATP, 6 h reaction; footnote symbol (a); read-out: RIPK1 Enzyme Avg IC50. How it is done: In order to measure RIPK1 activity the ADP-Glo kinase assay (Promega, Catalog #V7002) was used to measure the conversion of ATP to ADP. This enzymatic assay was performed in a 384-well white, Optiplate (Perkin Elmer, Catalog #6007299) with assay buffer consisting of 50 mM HEPES pH 7.5 (Gibco, Catalog #15630-080), 50 mM NaCl (Teknova, Catalog #S0252), 30 mM MgCl2 (Ambion, Catalog #AM9530G), 1 mM DTT (Santa Cruz Biotechnology, Catalog #sc-29089), 0.05% BSA (Sigma, Catalog #A3059-50G) and 0.02% CHAPS (Sigma, Catalog #C5070-5G). Stock solutions of the test compounds were prepared in 100% DMSO (Sigma, Catalog #D2650) and serially diluted 1:3 using 100% DMSO. Compounds were additionally diluted 1:40 in assay buffer, and 2 μL/well were transferred to the assay plate. 4 μL/well (final concentration of 5 nM) of RIPK1 protein (SignalChem, Catalog #R07-1IG-05) diluted in assay buffer and added to the assay plate followed by a 10 minute preincutation at rt. 4 μL/well of ATP (Promega, Catalog #V7002) (final concentration of 50 μM) diluted in assay buffer were then added to the assay plate followed by a 6 h reaction time. Final concentrations of RIPK1 and ATP refer to a 10 μL volume. Luminescence was measured using a BioTek Synergy™ NEO plate reader. IC50 values were calculated using a four-parameter logistic curve fit using Genedata Screener software.
Sequence of RIPK1 (Q13546 1-327): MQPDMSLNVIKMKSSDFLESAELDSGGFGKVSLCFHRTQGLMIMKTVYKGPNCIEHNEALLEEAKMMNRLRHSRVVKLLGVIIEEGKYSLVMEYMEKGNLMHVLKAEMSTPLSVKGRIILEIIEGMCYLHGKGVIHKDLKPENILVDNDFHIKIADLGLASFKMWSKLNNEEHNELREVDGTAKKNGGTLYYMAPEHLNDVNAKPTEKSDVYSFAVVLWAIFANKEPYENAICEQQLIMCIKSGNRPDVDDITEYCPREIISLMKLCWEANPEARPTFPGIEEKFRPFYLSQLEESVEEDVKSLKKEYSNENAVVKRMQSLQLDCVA
Background: ADP-Glo turns the ADP formed in a reaction into a luminescent signal.
For the compound `CC(=O)NC12CC(C(=O)N3CCCC3c3cccc(C)c3)(C1)C2` (centres unmarked) [Example 119, N-(3-(2-(m-tolyl)pyrrolidine-1-carbonyl)bicyclo[1.1.1]-pentan-1-yl)acetamide], the IC50 is greater than 50 µM. As for `COC(=O)C12CC(C(=O)N[C@@H](C)c3cc(F)cc(F)c3)(C1)C2` [Example 115, methyl (S)-3-((1-(3,5-difluorophenyl)ethyl)-carbamoyl)bicyclo[1.1.1]-pentane-1-carboxylate], the IC50 is greater than 50 µM.

For the compound `N#CC12CC(C(=O)N3CCC(Oc4ccccc4)C3)(C1)C2` (centres unmarked) [Example 116, 3-(3-phenoxypyrrolidine-1-carbonyl)bicyclo[1.1.1]-pentane-1-carbonitrile], the IC50 was greater than 50 µM. On the same count and under the same terms, to `C[C@H](NC(=O)C12CC(CO)(C1)C2)c1cc(F)cc(F)c1` [Example 90, (S)-N-(1-(3,5-difluoro-phenyl)ethyl)-3-(hydroxymethyl)-bicyclo[1.1.1]pentane-1-carboxamide] belongs greater than 50 µM; to `Cc1cccc(C2CCCN2C(=O)C23CC(Nc4nccc(C#N)n4)(C2)C3)c1` (centres unmarked) [Example 105, 2-((3-(2-(m-tolyl)pyrrolidine-1-carbonyl)bicyclo[1.1.1]-pentan-1-yl)amino)-pyrimidine-4-carbonitrile], greater than 50 µM; to `COC(=O)C12CC(C(=O)NCc3cc(F)cc(F)c3)(C1)C2` [Example 121, methyl 3-((3,5-difluoro-benzyl)carbamoyl)-bicyclo[1.1.1]pentane-1-carboxylate], greater than 50 µM. Regarding `COC(=O)C12CC(C(=O)N3CC[C@@H](Oc4cc(F)ccc4F)C3)(C1)C2` [Example 37, Methyl (R)-3-(3-(2,5-difluorophenoxy)pyrrolidine-1-carbonyl)-bicyclo[1.1.1]pentane-1-carboxylate], the IC50 is greater than 50 µM.

Still in this experiment, the particulars now being: 5 nM RIPK1, 50 μM ATP, 6 h reaction; read-out: RIPK1 Enzyme Avg IC50.
On to `O=C(Nc1cc(Cl)ncn1)C12CC(C(=O)N3N=CCC3c3cc(F)cc(F)c3)(C1)C2` (centres unmarked) [Example 76, N-(6-chloropyrimidin-4-yl)-3-(5-(3,5-difluorophenyl)-4,5-dihydro-1H-pyrazole-1-carbonyl)bicyclo[1.1.1]-pentane-1-carboxamide], for which the IC50 is 5.39 µM.

For `O=C(N1N=CCC1c1ccccc1)C12CC(O)(C1)C2` (centres unmarked) [Example 45, (3-Hydroxybicyclo[1.1.1]pentan-1-yl)(5-phenyl-4,5-dihydro-1H-pyrazol-1-yl)methanone], the IC50 was 8.59 µM. With “(5-(3,5-difluorophenyl)-4,5-dihydro-1H-pyrazol-1-yl)(3-((6-methoxy-1H-benzo[d]-imidazol-1-yl)methyl)-bicyclo[1.1.1]pentan-1-yl)-methanone and (5-(3,5-difluorophenyl)-4,5-dihydro-1H-pyrazol-1-yl)(3-((5-methoxy-1H-benzo[d]-imidazol-1-yl)methyl)-bicyclo[1.1.1]pentan-1-yl)-methanone [Example 187]”, the IC50 amounted to 0.447 µM. On the same count and under the same terms, to `COCc1cn(CC23CC(C(=O)N4N=CCC4c4cc(F)cc(F)c4)(C2)C3)nn1` (centres unmarked) [Example 149, (5-(3,5-difluorophenyl)-4,5-dihydro-1H-pyrazol-1-yl)(3-((4-(methoxymethyl)-1H-1,2,3-triazol-1-yl)methyl)-bicyclo[1.1.1]pentan-1-yl)methanone] belongs 3.93 µM; to “(5-(3,5-difluorophenyl)-4,5-dihydro-1H-pyrazol-1-yl)(3-((6-fluoro-2-methyl-1H-benzo[d]imidazol-1-yl)-methyl)bicyclo[1.1.1]pentan-1-yl)methanone and (5-(3,5-difluorophenyl)-4,5-dihydro-1H-pyrazol-1-yl)(3-((5-fluoro-2-methyl-1H-benzo[d]imidazol-1-yl)-methyl)bicyclo[1.1.1]pentan-1-yl)methanone [Example 188]”, 0.454 µM.

For the compound `Cc1cccc(OCC23CC(C(=O)N4CC(F)CC4c4cccc(F)c4)(C2)C3)c1` (centres unmarked) [Example 108, (4-fluoro-2-(3-fluorophenyl)-pyrrolidin-1-yl)(3-((m-tolyloxy)methyl)bicyclo-[1.1.1]pentan-1-yl)methanone], the IC50 came to 0.206 µM. Turning to `O=C(N1CC(F)CC1c1cccc(F)c1)C12CC(CO)(C1)C2` (centres unmarked) [Example 24, (4-Fluoro-2-(3-fluorophenyl)pyrrolidin-1-yl)(3-(hydroxymethyl)bicyclo[1.1.1]pentan-1-yl)methanone], the IC50 came to 38.8 µM.

With `N#Cc1ccc2cnn(CC34CC(C(=O)N5N=CCC5c5cc(F)cc(F)c5)(C3)C4)c2c1` (centres unmarked) [Example 66, 1-((3-(5-(3,5-difluorophenyl)-4,5-dihydro-1H-pyrazole-1-carbonyl)bicyclo[1.1.1]-pentan-1-yl)methyl)-1H-indazole-6-carbonitrile], the IC50 came to 0.016 µM. Take `C[C@H](NC(=O)C12CC(COc3cc(C#N)ncn3)(C1)C2)c1cc(F)cc(F)c1` [Example 102, (S)-3-(((6-cyanopyrimidin-4-yl)oxy)methyl)-N-(1-(3,5-difluorophenyl)ethyl)-bicyclo[1.1.1]pentane-1-carboxamide]: the IC50 is 2 µM. `O=C(N1N=CCC1c1cc(F)cc(F)c1)C12CC(Cn3ncc4c(F)cncc43)(C1)C2` (centres unmarked) [Example 15, (5-(3,5-Difluorophenyl)-4,5-dihydro-1H-pyrazol-1-yl)(3-((4-fluoro-1H-pyrazolo[3,4-c]-pyridin-1-yl)methyl)bicyclo[1.1.1]pentan-1-yl)methanone]: the IC50 was found to be 0.022 µM. For the compound `CNC(=O)C12CC(C(=O)N3N=CCC3c3cc(F)cc(F)c3)(C1)C2` (centres unmarked) [Example 78, 3-(5-(3,5-difluorophenyl)-4,5-dihydro-1H-pyrazole-1-carbonyl)-N-methylbicyclo-[1.1.1]pentane-1-carboxamide], the IC50 came to 13 µM.

For `N#Cc1cc(OCC23CC(C(=O)NCc4cc(F)cc(F)c4)(C2)C3)ncn1` [Example 104, 3-(((6-cyanopyrimidin-4-yl)oxy)methyl)-N-(3,5-difluorobenzyl)bicyclo-[1.1.1]pentane-1-carboxamide], the IC50 was 3.05 µM. For the compound `COCC12CC(C(=O)N3CC(F)CC3c3cccc(F)c3)(C1)C2` (centres unmarked) [Example 35, (4-Fluoro-2-(3-fluorophenyl)pyrrolidin-1-yl)(3-(methoxymethyl)-bicyclo[1.1.1]pentan-1-yl)methanone], the IC50 is 4.63 µM. `N#Cc1ccc2nn(CC34CC(C(=O)N5N=CCC5c5cc(F)cc(F)c5)(C3)C4)cc2n1` (centres unmarked) [Example 180, 2-((3-(5-(3,5-difluorophenyl)-4,5-dihydro-1H-pyrazole-1-carbonyl)bicyclo[1.1.1]-pentan-1-yl)methyl)-2H-pyrazolo[4,3-b]pyridine-5-carbonitrile]: the IC50 stood at 0.392 µM. On to `O=C(N1N=CCC1c1cc(F)cc(F)c1)C12CC(Cc3nnn[nH]3)(C1)C2` (centres unmarked) [Example 19, (3-((1H-tetrazol-5-yl)methyl)bicyclo[1.1.1]pentan-1-yl)(5-(3,5-difluorophenyl)-4,5-dihydro-1H-pyrazol-1-yl)methanone], for which the IC50 worked out at 0.363 µM. As for `O=C(N1N=CCC1c1cc(F)cc(F)c1)C12CC(CN3C(=O)C(F)(F)c4ccccc43)(C1)C2` (centres unmarked) [Example 32, 1-((3-(5-(3,5-Difluorophenyl)-4,5-dihydro-1H-pyrazole-1-carbonyl)-bicyclo[1.1.1]pentan-1-yl)methyl)-3,3-difluoroindolin-2-one], the IC50 came to 0.196 µM.

One may read the IC50 as the point on the concentration scale where inhibition reaches its midpoint.
